From US20250026779A1 (priority 2023, published 2025)

Assays:
Balb/c mice = test: In vivo expression of Lucia mRNAs containing cap analogs; conditions: Lucia mRNA capped with the compound, compared with Cap1 (FIG. 1C)
Procedure: Candidate RNAs were formulated using proprietary lipid-based delivery vehicles (e.g., as described in WO 2020/069442 and WO 2023/014931) and administered to Balb/c mice at a dose of 15 μg per mouse. In life serum draws were conducted via submandibular vein at selected time points starting 2 hours post-dose. Serum was diluted 5 μL into […] of QUANTI-Luc reagent (InvivoGen, San Diego, CA, USA) and measured immediately using a plate reader (Molecular Devices, San Jose, CA, USA).

[1] = target: T1, HiScribe T7 RNA synthesis kit (IVT reaction, DNA template encoding Lucia) (Escherichia phage T7, UniProt P00573); test: In vitro transcription (IVT) of mRNAs containing cap analogs: yield / incorporation; format: biochemical
T1 construct: purchased New England Biolabs
Procedure: mRNA was transcribed from DNA template encoding Lucia using HiScribe T7 RNA synthesis kit (New England Biolabs, Ipswich, MA, USA). N^1-Methylpseudo-UTP (TniLink, San Diego, CA, USA) was used in replaced of UTP for the reaction. For 5′ capping of the mRNA, the cap analog compounds (e.g., Compounds 1-4) described herein, or CleanCap (TriLink, San Diego, CA, USA), were added to the IVT reaction, as indicated. The reactions were performed for 4 hours at 37° C.
Purification of the transcript was performed by TURBO DNase digestion (ThermoFisher Scientific, Waltham, MA, USA) for 30 min at 37° C. followed by RNAClean XP beads (Beckman Coulter) clean up. The RNA bound beads were washed 3 times with freshly prepared 70% ethanol, air dried for 15 minutes followed by elution in 200 μL of nuclease free water. The purified mRNA was quantified using nanodrop (ThermoFisher Scientific, Waltham, MA, USA) and analyzed using Tapestation (Agilent, Santa Clara, CA, USA).

[2] = tested on: human Dendritic Cells (differentiated from PBMCs); test: Cap immunogenicity by multiplexed cytokine screening (Luminex) in dendritic cells; format: cell-based; conditions: human DCs, 24 hours, compared with Cap1 (FIGS. 3A-3F)
Procedure: Fresh human Dendritic Cells (differentiated from PBMCs by GM-CSF+IL-4 stimulation) were plated at 5e4 cells per well in 96 well flat TC treated dish. mRNA was prepared in Lipofectamine MessengerMAX transfection reagent according to manufacturer's instructions at 2ng/1 k cells. Briefly, mRNA was diluted to 0.02 μg/μl in Opti-MEM reduced serum medium and mixed 1:1 with MessengerMAX to a concentration of 0.01 μg/μl. Two 1:10 dilutions were performed and 10 or 2.5 μl per well of each dilution was added directly to DCs in resulting doses of 2, 0.5, 0.2, 0.05 and 0.02 ng per 1000 DCs. Immunostimulatory RIG-1 agonist Hairpin RNA (3p-hpRNA, InvivoGen) and double stranded RNA (5′ ppp-dsRNA, InvivoGen) were used as controls and formulated as described above.
Stimulated DCs were incubated for 24 hours at 37° C. with 5% CO2. Supernatant was collected and immediately frozen at −80° C. It was subsequently thawed and prepared for Luminex xMAP analysis using a Human Inflammation 20-Plex ProcartaPlex Panel kit (ThermoFisher) according to the manufacturer's instructions. Data was acquired on a MAGPIX system (Luminex xMAP instrument) and pg/mL values for each analyte were derived from a standard curve generated with kit components. Values outside the range of the standard curve were reported as mean fluorescence intensity (MFI).

T1 sequence (P00573 whole entry): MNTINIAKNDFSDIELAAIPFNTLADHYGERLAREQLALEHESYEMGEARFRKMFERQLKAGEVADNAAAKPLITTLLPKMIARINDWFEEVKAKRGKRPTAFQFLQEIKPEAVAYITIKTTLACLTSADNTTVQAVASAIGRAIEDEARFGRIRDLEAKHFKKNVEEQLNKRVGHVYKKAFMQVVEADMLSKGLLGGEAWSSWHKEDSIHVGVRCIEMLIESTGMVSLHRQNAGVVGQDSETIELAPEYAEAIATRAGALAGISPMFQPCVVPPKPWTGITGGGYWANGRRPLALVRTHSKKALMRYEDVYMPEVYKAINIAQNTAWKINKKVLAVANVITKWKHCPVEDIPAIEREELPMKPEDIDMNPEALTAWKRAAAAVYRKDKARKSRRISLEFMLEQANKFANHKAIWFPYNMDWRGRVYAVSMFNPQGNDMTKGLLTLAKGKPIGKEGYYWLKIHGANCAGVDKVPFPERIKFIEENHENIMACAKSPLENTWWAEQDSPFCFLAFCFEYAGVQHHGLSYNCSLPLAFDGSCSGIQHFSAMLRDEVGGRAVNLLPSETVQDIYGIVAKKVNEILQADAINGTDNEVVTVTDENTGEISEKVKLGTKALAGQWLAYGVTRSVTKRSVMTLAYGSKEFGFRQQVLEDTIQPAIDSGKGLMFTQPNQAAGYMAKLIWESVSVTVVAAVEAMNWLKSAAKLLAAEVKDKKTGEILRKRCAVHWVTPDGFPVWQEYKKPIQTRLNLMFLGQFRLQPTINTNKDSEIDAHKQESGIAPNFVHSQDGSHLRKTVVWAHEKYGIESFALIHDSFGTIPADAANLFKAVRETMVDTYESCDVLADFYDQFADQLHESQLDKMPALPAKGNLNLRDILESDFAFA

Compound | in vivo expression (Balb/c mice) | IVT yield ([1]; mRNA capped with the compound, compared with Cap1 (FIG. 1A)) | incorporation into IVT ([1]; trinucleotide cap modified at the 7G position) | immunogenicity across key cytokine markers (IFNγ, IFNα, IP-10, IL-1α, TNFα) [2]
CC[n+]1cn([C@@H]2O[C@H](COP(=O)(O)OP(=O)([O-])OP(=O)(O)OC[C@H]3O[C@@H](n4cnc5c(N)ncnc54)[C@H](OC)[C@@H]3OP(=O)(O)OC[C@H]3O[C@@H](n4cnc5c(=O)[nH]c(N)nc54)[C@H](O)[C@@H]3O)[C@@H](O)[C@H]2O)c2nc(N)[nH]c(=O)c21 [Compound 1] | equivalently | equivalently | successfully incorporated | –
CC[n+]1cn([C@@H]2O[C@H](COP(=O)(O)OP(=O)(O)OP(=O)(O)OC[C@H]3O[C@@H](n4cnc5c(N)ncnc54)[C@H](OC)[C@@H]3O[P@@]([O-])(=S)OC[C@H]3O[C@@H](N4C=NC5C(=O)NC(N)=NC54)[C@H](O)[C@@H]3O)[C@@H](O)[C@H]2O)c2nc(N)[nH]c(=O)c21 (stereo partly shown) [Compound 3] | – | – | – | lower
